{"source": "patent US9067871B2", "about": "“Aminotetraline derivatives, pharmaceutical compositions containing them, and their use in therapy” (ABBVIE DEUTSCHLAND GMBH & CO KG, priority 2009, dated 2015)", "note": "Counter-ions that a name gives are not always drawn."}
{"molecular_target": "human GlyT1c transporter (Homo sapiens (Human), UniProt P48067)", "sequence (P48067 whole entry)": "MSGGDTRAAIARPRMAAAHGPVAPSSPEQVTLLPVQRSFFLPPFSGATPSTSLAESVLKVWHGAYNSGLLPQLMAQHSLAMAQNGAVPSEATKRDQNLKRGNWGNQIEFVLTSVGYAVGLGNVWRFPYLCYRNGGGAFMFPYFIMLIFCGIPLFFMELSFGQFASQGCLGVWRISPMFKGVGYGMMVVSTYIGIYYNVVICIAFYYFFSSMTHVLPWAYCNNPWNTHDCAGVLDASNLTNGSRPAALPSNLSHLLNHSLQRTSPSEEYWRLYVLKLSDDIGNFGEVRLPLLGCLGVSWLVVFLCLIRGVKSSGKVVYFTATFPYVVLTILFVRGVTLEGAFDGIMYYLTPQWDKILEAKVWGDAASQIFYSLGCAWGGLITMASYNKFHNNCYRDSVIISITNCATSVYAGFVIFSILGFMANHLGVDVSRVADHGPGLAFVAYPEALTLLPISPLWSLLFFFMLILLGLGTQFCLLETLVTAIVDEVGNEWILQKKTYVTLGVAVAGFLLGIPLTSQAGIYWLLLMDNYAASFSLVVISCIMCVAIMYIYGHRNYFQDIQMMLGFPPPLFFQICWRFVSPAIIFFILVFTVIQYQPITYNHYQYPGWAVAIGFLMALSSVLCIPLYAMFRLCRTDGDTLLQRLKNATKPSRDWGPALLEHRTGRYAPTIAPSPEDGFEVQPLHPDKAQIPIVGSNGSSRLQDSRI", "test": "Radioligand binding assay using recombinant CHO cell membranes expressing human GlyT1", "details": "human GlyT1c-expressing CHO cell membranes; read-out: radioligand binding Kiapp", "source_text": "(§1) 2. Radioligand binding assays using recombinant CHO cell membranes expressing human GlyT1: […]", "units": {"Ki": "nM"}}
{"smiles": "Cn1cnc(S(=O)(=O)NCc2ccc3c(c2)C(Cc2ccccc2)C(N2CCOCC2)CC3)c1", "note": "(stereo not shown) [Example 257, N-{[8-Benzyl-7-(morpholin-4-yl)-5,6,7,8-tetrahydronaphthalen-2-yl]methyl}-1-methyl-1H-imidazole-4-sulfonamide]", "Ki": "≤ 100"}
{"smiles": "Cn1cc(S(=O)(=O)NCc2ccc3c(c2)C(Cc2ccccc2)C(N2CCOCC2)CC3)cn1", "note": "(stereo not shown) [Example 258, N-{[8-Benzyl-7-(morpholin-4-yl)-5,6,7,8-tetrahydronaphthalen-2-yl]methyl}-1-methyl-1H-pyrazole-4-sulfonamide]", "Ki": "≤ 100"}
{"smiles": "O=S(=O)(CC1CC1)NCc1ccc2c(c1)C(Cc1ccccc1)C(N1CCOCC1)CC2", "note": "(stereo not shown) [Example 259, N-{[8-Benzyl-7-(morpholin-4-yl)-5,6,7,8-tetrahydronaphthalen-2-yl]methyl}-1-cyclopropylmethanesulfonamide]", "Ki": "≤ 1000"}
{"smiles": "O=S(=O)(NCc1ccc2c(c1)C(Cc1ccccc1)C(N1CCOCC1)CC2)C1CCC1", "note": "(stereo not shown) [Example 261, N-{[8-Benzyl-7-(morpholin-4-yl)-5,6,7,8-tetrahydronaphthalen-2-yl]methyl}cyclobutanesulfonamide]", "Ki": "≤ 1000"}
{"smiles": "Cn1cnc(S(=O)(=O)NCc2ccc3c(c2)C(Cc2ccccc2)C(N2CCCC2)CC3)c1", "note": "(stereo not shown) [Example 262, N-{[8-Benzyl-7-(pyrrolidin-1-yl)-5,6,7,8-tetrahydronaphthalen-2-yl]methyl}-1-methyl-1H-imidazole-4-sulfonamide]", "Ki": "≤ 100"}
{"smiles": "Cn1cnc(S(=O)(=O)NCc2ccc3c(c2)C(Cc2ccccc2)C(N2CCCC2=O)CC3)c1", "note": "(stereo not shown) [Example 263, N-{[8-Benzyl-7-(2-oxopyrrolidin-1-yl)-5,6,7,8-tetrahydronaphthalen-2-yl]methyl}-1-methyl-1H-imidazole-4-sulfonamide]", "Ki": "≤ 1000"}
{"smiles": "CCCS(=O)(=O)NCCCc1ccc2c(c1)C(Cc1cccc(Cl)c1)C(N1CCCC1)CC2", "note": "(stereo not shown) [Example 264, N-{3-[8-(3-Chlorobenzyl)-7-(pyrrolidin-1-yl)-5,6,7,8-tetrahydronaphthalen-2-yl]propyl}propane-1-sulfonamide hydrochloride]", "Ki": "≤ 1000"}
{"smiles": "CCCS(=O)(=O)NCCCc1ccc2c(c1)C(Cc1ccccc1)C(N1CCCC1)CC2", "note": "(stereo not shown) [Example 265, Propane-1-sulfonic acid [3-(8-benzyl-7-pyrrolidin-1-yl-5,6,7,8-tetrahydro-naphthalen-2-yl)propyl]-amide hydrochloride]", "Ki": "≤ 1000"}
{"smiles": "O=S(=O)(CC1CC1)NCCCc1ccc2c(c1)C(Cc1ccccc1)C(N1CCCC1)CC2", "note": "(stereo not shown) [Example 266, N-{3-[8-Benzyl-7-(pyrrolidin-1-yl)-5,6,7,8-tetrahydronaphthalen-2-yl]propyl}-1-cyclopropylmethanesulfonamide hydrochloride]", "Ki": "≤ 1000"}
{"smiles": "Cn1ccc(S(=O)(=O)NCCOc2ccc3c(c2)C(Cc2cccc(F)c2)C(N2CCCC2)CC3)c1", "note": "(stereo not shown) [Example 267, N-(2-{[8-(3-Fluorobenzyl)-7-(pyrrolidin-1-yl)-5,6,7,8-tetrahydronaphthalen-2-yl]oxy}ethyl)-1-methyl-1H-pyrrole-3-sulfonamide]", "Ki": "≤ 100"}
{"smiles": "Cn1ccc(S(=O)(=O)NCCOc2ccc3c(c2)C(Cc2ccccc2)C(N2CCC2)CC3)c1", "note": "(stereo not shown) [Example 268, N-(2-{[7-(Azetidin-1-yl)-8-benzyl-5,6,7,8-tetrahydronaphthalen-2-yl]oxy}ethyl)-1-methyl-1H-pyrrole-3-sulfonamide]", "Ki": "≤ 10"}
{"smiles": "Cn1ccc(S(=O)(=O)NCCOc2ccc3c(c2)C(Cc2cccc(F)c2)C(N2CCC2)CC3)c1", "note": "(stereo not shown) [Example 269, 1-Methyl-1H-pyrrole-3-sulfonic acid {2-[7-azetidin-1-yl-8-(3-fluoro-benzyl)-5,6,7,8-tetrahydro-naphthalen-2-yloxy]-ethyl}-amide]", "Ki": "≤ 10"}
{"smiles": "Cn1ccc(S(=O)(=O)NCCOc2ccc3c(c2)C(Cc2cc(F)cc(F)c2)C(NC=O)CC3)c1", "note": "(stereo not shown) [Example 271, N-(2-{[8-(3,5-Difluorobenzyl)-7-(formylamino)-5,6,7,8-tetrahydronaphthalen-2-yl]oxy}ethyl)-1-methyl-1H-pyrrole-3-sulfonamide]", "Ki": "≤ 100"}
{"smiles": "CCCS(=O)(=O)NCCCc1ccc2c(c1)C(Cc1ccc(Cl)c(Cl)c1)C(NC(C)C)CC2", "note": "(stereo not shown) [Example 272, N-{3-[8-(3,4-Dichlorobenzyl)-7-(propan-2-ylamino)-5,6,7,8-tetrahydronaphthalen-2-yl]propyl}propane-1-sulfonamide]", "Ki": "≤ 100"}
{"smiles": "CCCS(=O)(=O)NCCCc1ccc2c(c1)C(Cc1ccccc1)C(NC(C)C)CC2", "note": "(stereo not shown) [Example 273, N-{3-[8-Benzyl-7-(propan-2-ylamino)-5,6,7,8-tetrahydronaphthalen-2-yl]propyl}propane-1-sulfonamide hydrochloride]", "Ki": "≤ 1000"}
{"smiles": "CCN(CC)C1CCc2ccc(CCCNS(=O)(=O)CC3CC3)cc2C1Cc1ccc(Cl)cc1", "note": "(stereo not shown) [Example 274, N-{3-[8-(4-Chlorobenzyl)-7-(diethylamino)-5,6,7,8-tetrahydronaphthalen-2-yl]propyl}-1-cyclopropylmethanesulfonamide hydrochloride]", "Ki": "≤ 100"}
{"smiles": "CCCS(=O)(=O)N(C)Cc1ccc2c(c1)C(Cc1ccccc1)C(NC)CC2", "note": "(stereo not shown) [Example 275, N-{[8-Benzyl-7-(methylamino)-5,6,7,8-tetrahydronaphthalen-2-yl]methyl}-N-methylpropane-1-sulfonamide trifluoroacetate]", "Ki": "≤ 100"}
{"smiles": "CCCS(=O)(=O)NCC#Cc1ccc2c(c1)C(Cc1ccccc1)C(NC(C)=O)CC2", "note": "(stereo not shown) [Example 276, N-[1-Benzyl-7-{3-[(propylsulfonyl)amino]prop-1-yn-1-yl}-1,2,3,4-tetrahydronaphthalen-2-yl]acetamide]", "Ki": "≤ 10000"}
{"smiles": "CCCS(=O)(=O)N(CCOc1ccc2c(c1)C(Cc1ccccc1)C(NC(=O)OCC)CC2)C1CC1", "note": "(stereo not shown) [Example 280]", "Ki": "≤ 10000"}
{"smiles": "CCCS(=O)(=O)N(CCOc1ccc2c(c1)C(Cc1cccc(Cl)c1)C(N)CC2)C1CC1", "note": "(stereo not shown) [Example 281, Propane-1-sulfonic acid {2-[7-amino-8-(3-chloro-benzyl)-5,6,7,8-tetrahydro-naphthalen-2-yloxy]-ethyl}-cyclopropyl-amide hydrochloride]", "Ki": "≤ 100"}
{"smiles": "CCCS(=O)(=O)N(CCOc1ccc2c(c1)C(Cc1ccccc1)C(N)CC2)C1CC1", "note": "(stereo not shown) [Example 282, Propane-1-sulfonic acid [2-(7-amino-8-benzyl-5,6,7,8-tetrahydro-naphthalen-2-yloxy)ethyl]-cyclopropyl-amide hydrochloride]", "Ki": "≤ 100"}
{"smiles": "CCCS(=O)(=O)N1CC(c2ccc3c(c2)C(Cc2cccc(Cl)c2)C(N)CC3)C1", "note": "(stereo not shown) [Example 283, 1-(3-Chloro-benzyl)-7-[1-(propane-1-sulfonyl)-azetidin-3-yl]-1,2,3,4-tetrahydro-naphthalen-2-ylamine hydrochloride]", "Ki": "≤ 1000"}
{"smiles": "CCCS(=O)(=O)N1CC(c2ccc3c(c2)C(Cc2ccccc2)C(N)CC3)C1", "note": "(stereo not shown) [Example 284, 1-Benzyl-7-[1-(propane-1-sulfonyl)-azetidin-3-yl]-1,2,3,4-tetrahydro-naphthalen-2-ylamine hydrochloride]", "Ki": "≤ 1000"}
{"smiles": "CCCS(=O)(=O)N1CC(COc2ccc3c(c2)C(Cc2cccc(Cl)c2)C(NC(=O)OCC)CC3)C1", "note": "(stereo not shown) [Example 285, {1-(3-Chloro-benzyl)-7-[1-(propane-1-sulfonyl)-azetidin-3-ylmethoxy]-1,2,3,4-tetrahydronaphthalen-2-yl}-carbamic acid ethyl ester]", "Ki": "≤ 10000"}
{"smiles": "CCCS(=O)(=O)N1CC(COc2ccc3c(c2)C(Cc2cccc(Cl)c2)C(N)CC3)C1", "note": "(stereo not shown) [Example 286, 1-(3-Chloro-benzyl)-7-[1-(propane-1-sulfonyl)-azetidin-3-ylmethoxy]-1,2,3,4-tetrahydronaphthalen-2-ylamine hydrochloride]", "Ki": "≤ 10000"}
{"smiles": "CCOC(=O)NC1CCc2ccc(OCCNS(=O)(=O)CC3CC3)cc2C1Cc1cccc(Cl)c1", "note": "(stereo not shown) [Example 287, [1-(3-Chloro-benzyl)-7-(2-cyclopropylmethanesulfonylamino-ethoxy)-1,2,3,4-tetrahydronaphthalen-2-yl]-carbamic acid ethyl ester]", "Ki": "≤ 10000"}
{"smiles": "NC1CCc2ccc(OCCNS(=O)(=O)CC3CC3)cc2C1Cc1cccc(Cl)c1", "note": "(stereo not shown) [Example 288, N-{2-[7-Amino-8-(3-chloro-benzyl)-5,6,7,8-tetrahydro-naphthalen-2-yloxy]-ethyl}-C-cyclopropyl-methanesulfonamide hydrochloride]", "Ki": "≤ 10"}
{"smiles": "CCOC(=O)NC1CCc2ccc(OCC3CN(S(=O)(=O)CC4CC4)C3)cc2C1Cc1cccc(Cl)c1", "note": "(stereo not shown) [Example 289, [1-(3-Chloro-benzyl)-7-(1-cyclopropylmethanesulfonyl-azetidin-3-ylmethoxy)-1,2,3,4-tetrahydro-naphthalen-2-yl]-carbamic acid ethyl ester]", "Ki": "> 10000"}
{"smiles": "CCOC(=O)NC1CCc2ccc(OCCN(C)S(=O)(=O)CC3CC3)cc2C1Cc1cccc(Cl)c1", "note": "(stereo not shown) [Example 290, {1-(3-Chloro-benzyl)-7-[2-(cyclopropylmethanesulfonyl-methyl-amino)-ethoxy]-1,2,3,4-tetrahydro-naphthalen-2-yl}-carbamic acid ethyl ester]", "Ki": "≤ 10000"}
{"smiles": "CN(CCOc1ccc2c(c1)C(Cc1cccc(Cl)c1)C(N)CC2)S(=O)(=O)CC1CC1", "note": "(stereo not shown) [Example 291, N-{2-[7-Amino-8-(3-chloro-benzyl)-5,6,7,8-tetrahydro-naphthalen-2-yloxy]-ethyl}-C-cyclopropyl-N-methyl-methanesulfonamide]", "Ki": "≤ 10"}
{"smiles": "CCCS(=O)(=O)N1CC(COc2ccc3c(c2)C(Cc2ccccc2)C(N)CC3)C1", "note": "(stereo not shown) [Example 292, 1-Benzyl-7-[1-(propane-1-sulfonyl)-azetidin-3-ylmethoxy]-1,2,3,4-tetrahydro-naphthalen-2-ylamine hydrochloride]", "Ki": "≤ 1000"}
{"smiles": "CCCS(=O)(=O)NCCOc1ccc2c(c1)C(Cc1ccccc1Cl)C(N)CC2", "note": "(stereo not shown) [Example 293, Propane-1-sulfonic acid {2-[7-amino-8-(2-chloro-benzyl)-5,6,7,8-tetrahydro-naphthalen-2-yloxy]-ethyl}-amide hydrochloride]", "Ki": "≤ 1000"}
{"smiles": "NC1CCc2ccc(OCCNS(=O)(=O)C3CC3)cc2C1Cc1ccccc1Cl", "note": "(stereo not shown) [Example 294, Cyclopropanesulfonic acid {2-[7-amino-8-(2-chloro-benzyl)-5,6,7,8-tetrahydro-naphthalen-2-yloxyl]-ethyl}-amide hydrochloride]", "Ki": "≤ 10000"}
{"molecular_target": "human GlyT1c transporter (Homo sapiens (Human), UniProt P48067)", "test": "Radioligand binding assay using recombinant CHO cell membranes expressing human GlyT1", "details": "read-out: radioligand binding Kiapp", "source_text": "as §1", "units": {"Ki": "nM"}}
{"smiles": "CCCS(=O)(=O)N(CCOc1ccc2c(c1)C(Cc1cccc(Cl)c1)C(NC(=O)OCC)CC2)C1CC1", "note": "(stereo not shown) [Example 279]", "Ki": "≤ 10000"}
